Test system: gene expression in the kidney
Experiment: GeneChip microarray survey of E2 regulated gene expression, kidney
Method: FIG. 1 depicts a pattern analysis generated by a GeneChip microarray analysis. […] Two hours following the final dose, the mice were euthanized and 13 tissues removed for RNA preparation. Two independent studies were performed, with total RNA pooled from two groups of three animals for each condition. Gene expression was quantified by GeneChip microarrays using murine U74 sub A arrays. Data were analyzed for patterns indicating either ERα or ERβ dependent regulation as shown. […] The number of genes in each tissue that matched the theoretical induction (↑) or repression (↓) patterns for ERα or ERβ are indicated.
FIGS. 2A-2C show a series of bar graphs showing gene expression levels of known genes regulated in the kidney in an ERα pattern. […] Expression was measured in two independent sets of animals, with two groups of animals for each treatment in each study. A gene name abbreviation is shown above each graph, with the corresponding Unigene designation shown below.
One week later, the animals were ovariectomized.
GeneChip—Total RNA was prepared separately from each individual organ by using Trizol (Invitrogen) followed by subsequent repurification on Rneasy columns (Qiagen). In general, two pools of RNA were created using equal amounts of RNA from three mice. For small organs such as pituitary, an equal amount of RNA from six animals was combined.
Target Preparation and Array Hybridization—Total RNA was used to generate biotin labeled cRNA target as described (8) which was hybridized to the murine MG_U74Av2 probe arrays (Affymetrix, Santa Clara, Calif.) for 16 h at 45° C. Eleven biotin-labeled cRNAs at defined concentration were spiked into each hybridization and used to convert average difference values to frequencies expressed as parts per million.
The resulting data set was queried for genes whose regulation was dependent on ERα or ERβ.

## C[C@]12CC[C@@H]3c4ccc(O)cc4CC[C@H]3[C@@H]1CC[C@@H]2O [E2, 17β-estradiol]
101979_at, AF055638, growth arrest and DNA-damage-inducible 45 gamma
  E2 Expr (/evansm/Kidney, mouse/Study 1, U74v2/WT E2 kidney (81036)): 42
102693_f_at, J00389, kallikrein 13, kallikrein 26
  E2 Expr (/evansm/Kidney, mouse/Study 1, U74v2/WT E2 kidney (81036)): 86
102788_s_at, U70132, paired-like homeodomain transcription factor 2
  E2 Expr (/evansm/Kidney, mouse/Study 1, U74v2/WT E2 kidney (81036)): 23
103048_at, M12731, neuroblastoma myc-related oncogene 1
  E2 Expr (/evansm/Kidney, mouse/Study 1, U74v2/WT E2 kidney (81036)): 39
103556_at, AI840158, angiopoletin-like 2
  E2 Expr (/evansm/Kidney, mouse/Study 1, U74v2/WT E2 kidney (81036)): 24
103729_at, M36775, laminin, alpha 1
  E2 Expr (/evansm/Kidney, mouse/Study 1, U74v2/WT E2 kidney (81036)): 17
103739_at, AW230977, RIKEN cDNA 1110017N23 gene
  E2 Expr (/evansm/Kidney, mouse/Study 1, U74v2/WT E2 kidney (81036)): 33
104221_at, AB017189, solute carrier family 7 (cationic amino acid transporter, y+ system), member 5
  E2 Expr (/evansm/Kidney, mouse/Study 1, U74v2/WT E2 kidney (81036)): 61
104477_at, AW047643, Mm.29940
  E2 Expr (/evansm/Kidney, mouse/Study 1, U74v2/WT E2 kidney (81036)): 15
104495_f_at, Y00500, kallikrein 5
  E2 Expr (/evansm/Kidney, mouse/Study 1, U74v2/WT E2 kidney (81036)): 115
104497_f_at, X03994, kallikrein 8
  E2 Expr (/evansm/Kidney, mouse/Study 1, U74v2/WT E2 kidney (81036)): 53
104550_at, AW123273, ?CYP2S1 Cytochrome P450
  E2 Expr (/evansm/Kidney, mouse/Study 1, U74v2/WT E2 kidney (81036)): 22
104776_at, AA600617, Mm.33238
  E2 Expr (/evansm/Kidney, mouse/Study 1, U74v2/WT E2 kidney (81036)): 4
104880_at, AI843154, Mm.33730
  E2 Expr (/evansm/Kidney, mouse/Study 1, U74v2/WT E2 kidney (81036)): 2
105737_at, AI851277, Mm.39735
  E2 Expr (/evansm/Kidney, mouse/Study 1, U74v2/WT E2 kidney (81036)): 8
106195_at, AI851948, Mm.22808
  E2 Expr (/evansm/Kidney, mouse/Study 1, U74v2/WT E2 kidney (81036)): 8
107993_at, AI847249, Mm.27680
  E2 Expr (/evansm/Kidney, mouse/Study 1, U74v2/WT E2 kidney (81036)): 9
108265_at, AW120464, Mm.54158
  E2 Expr (/evansm/Kidney, mouse/Study 1, U74v2/WT E2 kidney (81036)): 12
108749_at, AA611885, Mm.23047
  E2 Expr (/evansm/Kidney, mouse/Study 1, U74v2/WT E2 kidney (81036)): 34
108851_at, AW125899, Ras-like protein
  E2 Expr (/evansm/Kidney, mouse/Study 1, U74v2/WT E2 kidney (81036)): 10
109176_at, AI846059, RAI17 Retinoic acid Induced 17
  E2 Expr (/evansm/Kidney, mouse/Study 1, U74v2/WT E2 kidney (81036)): 79
110591_at, AA270831, SH3 domain protien D19
  E2 Expr (/evansm/Kidney, mouse/Study 1, U74v2/WT E2 kidney (81036)): 23
110767_r_at, AA959550, vascular endothelial growth factor
  E2 Expr (/evansm/Kidney, mouse/Study 1, U74v2/WT E2 kidney (81036)): 37
110850_at, AA959574, NRIP1 Nuclear receptor interacting protein 1, RIP140
  E2 Expr (/evansm/Kidney, mouse/Study 1, U74v2/WT E2 kidney (81036)): 76
111046_r_at, AI957367, 17b dehydrogenase A homolog
  E2 Expr (/evansm/Kidney, mouse/Study 1, U74v2/WT E2 kidney (81036)): 17
113125_at, AI851671, signal transducer and activator of transcription 5B
  E2 Expr (/evansm/Kidney, mouse/Study 1, U74v2/WT E2 kidney (81036)): 31
114903_at, AI447633, Mm.26357
  E2 Expr (/evansm/Kidney, mouse/Study 1, U74v2/WT E2 kidney (81036)): 96
116273_at, AW123862, Mm.31953
  E2 Expr (/evansm/Kidney, mouse/Study 1, U74v2/WT E2 kidney (81036)): 7
117208_at, AI838208, RIKEN cDNA 1110003O08 gene
  E2 Expr (/evansm/Kidney, mouse/Study 1, U74v2/WT E2 kidney (81036)): 37
129147_r_at, AI931796, similar to TYROSINE-PROTEIN KINASE RECEPTOR TIE-1 PRECURSOR
  E2 Expr (/evansm/Kidney, mouse/Study 1, U74v2/WT E2 kidney (81036)): 6
131149_at, AW214502, RIKEN cDNA 5033417D07 gene
  E2 Expr (/evansm/Kidney, mouse/Study 1, U74v2/WT E2 kidney (81036)): 7
131226_at, AI842542, Mm.23157
  E2 Expr (/evansm/Kidney, mouse/Study 1, U74v2/WT E2 kidney (81036)): 8
132403_at, AI788603, similar to TSC1_RAT HAMARTIN (TUBEROUS SCLEROSIS 1 PROTEIN HOMOLOG)
  E2 Expr (/evansm/Kidney, mouse/Study 1, U74v2/WT E2 kidney (81036)): 19
133139_at, AW122295, regulator of G-protein signaling 4
  E2 Expr (/evansm/Kidney, mouse/Study 1, U74v2/WT E2 kidney (81036)): 4
133672_at, AI451032, Mm.32389
  E2 Expr (/evansm/Kidney, mouse/Study 1, U74v2/WT E2 kidney (81036)): 11
134303_at, AI553493, Mm.35319
  E2 Expr (/evansm/Kidney, mouse/Study 1, U74v2/WT E2 kidney (81036)): 11
136270_at, AI854101, Highly similar to CRFB MOUSE CORTICOTROPIN-RELEASING FACTOR BINDING PROTEIN PRECURSOR
  E2 Expr (/evansm/Kidney, mouse/Study 1, U74v2/WT E2 kidney (81036)): 12
137525_at, AI098139, Mm.38027
  E2 Expr (/evansm/Kidney, mouse/Study 1, U74v2/WT E2 kidney (81036)): 4
139531_at, AW120795, Mm.45188
  E2 Expr (/evansm/Kidney, mouse/Study 1, U74v2/WT E2 kidney (81036)): 40
162645_at, AI851427, protein kinase, cAMP dependent regulatory, type II beta
  E2 Expr (/evansm/Kidney, mouse/Study 1, U74v2/WT E2 kidney (81036)): 11
162964_at, AI854153, regulator of G-protein signaling 4
  E2 Expr (/evansm/Kidney, mouse/Study 1, U74v2/WT E2 kidney (81036)): 11
162969_at, AW123298, Edil3 EGF-like repeats and discordin I-like domains 3
  E2 Expr (/evansm/Kidney, mouse/Study 1, U74v2/WT E2 kidney (81036)): 34
162976_at, AI838662, RIKEN cDNA 2700007F12 gene
  E2 Expr (/evansm/Kidney, mouse/Study 1, U74v2/WT E2 kidney (81036)): 10
163186_at, AI852882, RIKEN cDNA 2610510B01 gene
  E2 Expr (/evansm/Kidney, mouse/Study 1, U74v2/WT E2 kidney (81036)): 61
163224_at, AI843147, IGSF1 Immunoglobulin superfamily, member 1
  E2 Expr (/evansm/Kidney, mouse/Study 1, U74v2/WT E2 kidney (81036)): 27
163370_at, AI591488, Osbpl3 Oxysterol binding protien-like 3
  E2 Expr (/evansm/Kidney, mouse/Study 1, U74v2/WT E2 kidney (81036)): 10
163941_at, AI646761, RIKEN cDNA 1110018J23 gene
  E2 Expr (/evansm/Kidney, mouse/Study 1, U74v2/WT E2 kidney (81036)): 71
164051_at, AV359458, Mm.17850
  E2 Expr (/evansm/Kidney, mouse/Study 1, U74v2/WT E2 kidney (81036)): 195
164520_f_at, AV302474, Tmprss2 Transmembrane protease, serine 2
  E2 Expr (/evansm/Kidney, mouse/Study 1, U74v2/WT E2 kidney (81036)): 6
165032_i_at, AV365688, RIKEN cDNA 4933429H19 gene
  E2 Expr (/evansm/Kidney, mouse/Study 1, U74v2/WT E2 kidney (81036)): 42
165248_f_at, AV035328, placental lactogen 2
  E2 Expr (/evansm/Kidney, mouse/Study 1, U74v2/WT E2 kidney (81036)): 38
165569_at, AI847273, Mm.22305
  E2 Expr (/evansm/Kidney, mouse/Study 1, U74v2/WT E2 kidney (81036)): 5
165678_i_at, AI482191, Mm.33178
  E2 Expr (/evansm/Kidney, mouse/Study 1, U74v2/WT E2 kidney (81036)): 11
165710_at, AA815844, sodium channel, nonvoltage-gated 1 gamma
  E2 Expr (/evansm/Kidney, mouse/Study 1, U74v2/WT E2 kidney (81036)): 9
165772_at, AI851899, RIKEN cDNA 0610039J01 gene
  E2 Expr (/evansm/Kidney, mouse/Study 1, U74v2/WT E2 kidney (81036)): 29
165866_f_at, AV291803, ribosomal protein L12
  E2 Expr (/evansm/Kidney, mouse/Study 1, U74v2/WT E2 kidney (81036)): 40
166021_at, AI481830, Mm.49448
  E2 Expr (/evansm/Kidney, mouse/Study 1, U74v2/WT E2 kidney (81036)): 12
166843_at, AI851523, Mm.200318
  E2 Expr (/evansm/Kidney, mouse/Study 1, U74v2/WT E2 kidney (81036)): 174
166849_at, AI853080, Mm.40718
  E2 Expr (/evansm/Kidney, mouse/Study 1, U74v2/WT E2 kidney (81036)): 16
167023_f_at, AV016619, biglycan
  E2 Expr (/evansm/Kidney, mouse/Study 1, U74v2/WT E2 kidney (81036)): 3
168876_f_at, AV044014, kallikrein 21
  E2 Expr (/evansm/Kidney, mouse/Study 1, U74v2/WT E2 kidney (81036)): 75
169068_i_at, AV206066, RIKEN cDNA 4930434J08 gene
  E2 Expr (/evansm/Kidney, mouse/Study 1, U74v2/WT E2 kidney (81036)): 2
170686_f_at, AV362687, Mm.89845
  E2 Expr (/evansm/Kidney, mouse/Study 1, U74v2/WT E2 kidney (81036)): 58
170896_at, AV066592, Immune associated nucleotide 4
  E2 Expr (/evansm/Kidney, mouse/Study 1, U74v2/WT E2 kidney (81036)): 3
171390_i_at, AV299689, Mm.21070
  E2 Expr (/evansm/Kidney, mouse/Study 1, U74v2/WT E2 kidney (81036)): 3
mRNA level
  ABCC3 expression in kidney: induced mRNA levels
  NTT73 expression in kidney: increased mRNA levels
mouse, in vivo
  CIS2 expression in kidney: induction
  COR1 (RDC1) expression in kidney: induced expression
  CYP27B1 expression in kidney: induction
  ELF3 expression in kidney: induced expression
  GNBP3 expression in kidney: induced expression
  PHD2 expression in kidney: induced expression
  RGS3 expression in kidney: induced expression
  STAT5A expression in kidney: induced expression
  STAT5B expression in kidney: induced expression

Source: patent publication US7371207B2 (Wyeth, priority 2002, dated 2008)
